Data on one compound can be found in ChEMBL document CHEMBL5316350, “Novel Pyrido[2',1':2,3]imidazo[4,5-c]quinoline Derivative Selectively Poisons Leishmania donovani Bisubunit Topoisomerase 1 to Inhibit the Antimony-Resistant Leishmania Infection in Vivo” (J Med Chem, 2023).

Data set [1] has as its system Leishmania donovani. Description: Antileishmanial activity against Leishmania donovani Ag83 promastigotes infected in BALB/c mouse model of visceral leishmaniasis assessed as fold change in T-helper type 1 immunological evoke response in splenocytes by measuring increased IL-12 cytokine level treated after 3 weeks of infection at 5 to 10 mg/kg, ip twice a week for 3 weeks by RT-PCR analysis. In kind it is functional. To be noted: dose 5-10 mg/kg.

Data set [2] has as its system Leishmania donovani. Description: Stabilization of Leishmania donovani promastigotes Top1-DNA complex assessed as formation of SDS-KCl precipitable complex incubated for 110 mins by anti-BrdU staining based spectrophotometric analysis.
Data set [3] has as its system Leishmania donovani. Description: Induction of cell cycle arrest in Leishmania donovani Ag83 promastigotes assessed as decrease in accumulation of cells in G2/M phase at 5 uM measured after 6 hrs by PI staining based flow cytometry (reference value: 15.1 %). The format is functional. Set-up: scale not given: the % may be the effect or the level left. For orientation: In flow cytometry, cells or beads pass a laser one at a time.

In data set [4] the test system is Leishmania donovani. Description: Induction of apoptosis in Leishmania donovani Ag83 promastigotes assessed as DNA break accumulation measured at 5 uM after 15 mins by TUNEL staining based assay. The format is functional, organism-based.
Data set [5] deals with MCF7. Description: Induction of cell cycle arrest in human MCF7 cells measured at 5 uM upto 24 hrs by PI staining based flow cytometry. In kind it is functional.
Data set [6] concerns Leishmania donovani. Description: Antileishmanial activity against antimony resistant Leishmania donovani BHU575 promastigotes infected in BALB/c mouse assessed as reduction of macrophage at 10 uM measured after 96 hrs infection by propidium iodide staining analysis relative to control. The format is functional. Set-up: scale not given: the % may be the effect or the level left.

Data set [7] is described as follows: Selectivity index ratio of EC50 for BALB/c mouse macrophage to ratio of EC50 for antileishmanial activity against Leishmania amastigotes. The format is toxicity. To be noted: mouse macrophages, read-out: Ratio EC50.
In data set [8] the target is T1, DNA topoisomerase I (Leishmania donovani (strain BPK282A1)) (UniProt E9BRC0).
T1 sequence (whole entry): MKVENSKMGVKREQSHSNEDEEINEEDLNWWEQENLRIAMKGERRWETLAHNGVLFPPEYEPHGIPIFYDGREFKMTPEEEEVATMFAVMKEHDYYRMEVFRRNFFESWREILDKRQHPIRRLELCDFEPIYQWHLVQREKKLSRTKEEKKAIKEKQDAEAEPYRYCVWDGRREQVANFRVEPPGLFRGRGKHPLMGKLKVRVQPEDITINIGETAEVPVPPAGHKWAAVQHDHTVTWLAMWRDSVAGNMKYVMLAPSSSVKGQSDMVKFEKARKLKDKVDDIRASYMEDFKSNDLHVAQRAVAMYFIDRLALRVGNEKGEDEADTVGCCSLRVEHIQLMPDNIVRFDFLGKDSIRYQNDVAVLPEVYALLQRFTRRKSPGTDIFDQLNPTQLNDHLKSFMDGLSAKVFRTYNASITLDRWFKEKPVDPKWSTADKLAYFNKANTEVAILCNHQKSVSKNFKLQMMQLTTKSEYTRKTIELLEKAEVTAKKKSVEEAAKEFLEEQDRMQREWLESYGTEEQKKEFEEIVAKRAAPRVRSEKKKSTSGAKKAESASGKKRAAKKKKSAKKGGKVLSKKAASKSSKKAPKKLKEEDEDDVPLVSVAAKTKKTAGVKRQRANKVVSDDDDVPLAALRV
Description: Inhibition of Leishmania donovani topoisomerase I assessed as DNA intercalation using pBluscript (SK+) DNA as substrate at 20 to 200 uM incubated for 15 mins ethidium bromide staining based UV analysis. The settings on record: dose 20-200 µM.

Data set [9] has as its system Leishmania donovani. Description: Induction of cell cycle arrest in Leishmania donovani Ag83 promastigotes assessed as decrease in accumulation of cells in G2/M phase at 5 uM measured after 24 hrs by PI staining based flow cytometry (reference value: 15.1 %). In kind it is functional. Set-up: scale not given: the % may be the effect or the level left.
Data set [10] deals with MCF7. Description: Induction of apoptosis in human MCF7 cells measured at 5 uM upto 24 hrs by Annexin V-FITC/PI staining based flow cytometric analysis. The format is functional, cell-based.
The test system of data set [11] is Leishmania donovani. Description: Antileishmanial activity against Leishmania donovani Ag83 promastigotes infected in BALB/c mouse model of visceral leishmaniasis assessed as T-helper type 2 immunological evoke response in splenocytes by measuring decrease in IL-4 level treated after 3 weeks of infection at 5 to 10 mg/kg, ip twice a week for 3 weeks by RT-PCR analysis. The format is functional, organism-based. The settings on record: dose 5-10 mg/kg.

For data set [12], the system named is Leishmania donovani. Description: Antileishmanial activity in Leishmania donovani BHU575 promastigotes assessed as TUNEL positive cells at 5 uM measured after 12 hrs by confocal microscopic analysis relative to control. The format is functional.
In data set [13] the target is T2, DNA topoisomerase 1 (Homo sapiens) (UniProt P11387).
T2 sequence (whole entry): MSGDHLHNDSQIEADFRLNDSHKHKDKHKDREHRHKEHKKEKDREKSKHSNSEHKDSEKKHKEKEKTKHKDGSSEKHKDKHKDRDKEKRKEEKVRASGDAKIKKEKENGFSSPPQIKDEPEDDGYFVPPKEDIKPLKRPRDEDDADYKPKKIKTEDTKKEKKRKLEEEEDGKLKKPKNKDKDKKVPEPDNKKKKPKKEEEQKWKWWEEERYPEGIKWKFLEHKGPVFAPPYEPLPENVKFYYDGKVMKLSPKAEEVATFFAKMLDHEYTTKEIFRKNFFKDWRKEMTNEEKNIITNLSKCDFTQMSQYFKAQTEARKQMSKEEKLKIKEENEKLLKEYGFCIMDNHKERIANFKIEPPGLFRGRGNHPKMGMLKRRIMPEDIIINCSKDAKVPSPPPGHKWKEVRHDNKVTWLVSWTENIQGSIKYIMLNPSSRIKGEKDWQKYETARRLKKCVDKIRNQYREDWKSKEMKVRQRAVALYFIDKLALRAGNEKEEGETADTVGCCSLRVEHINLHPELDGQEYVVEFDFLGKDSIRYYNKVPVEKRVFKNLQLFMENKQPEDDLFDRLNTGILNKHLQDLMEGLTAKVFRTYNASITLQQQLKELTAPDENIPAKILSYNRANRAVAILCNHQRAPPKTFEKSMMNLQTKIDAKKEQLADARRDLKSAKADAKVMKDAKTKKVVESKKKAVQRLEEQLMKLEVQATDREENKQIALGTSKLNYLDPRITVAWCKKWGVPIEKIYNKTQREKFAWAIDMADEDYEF
Description: Inhibition of human recombinant Top1 assessed as stabilization of clevage complex upto 100 uM measured after 30 mins.

Data set [14] deals with Leishmania donovani. Description: Induction of apoptosis in antimony resistant Leishmania donovani BHU575 promastigotes at 5 uM measured after 6 to 24 hrs by FITC-Annexin V-based flow cytometric analysis. The format is functional, organism-based. The settings on record: time 6-24 hrs.
Data set [15] has as its target T1, DNA topoisomerase I (Leishmania donovani (strain BPK282A1)). Description: Binding affinity to antimony resistant Leishmania donovani BHU575 promastigotes recombinant topoisomerase I assessed as fold change in stabilization of cleavage complex at 5 to 50 uM measured after 30 mins relative to camptothecin. To be noted: dose 5-50 µM.
Data set [16] concerns Leishmania donovani. Description: Induction of cell cycle arrest in antimony resistant Leishmania donovani BHU575 promastigotes assessed as decrease in accumulation of cells in G0/G1 phase at 5 uM measured after 6 hrs by PI staining based flow cytometry (reference value: 80.7%). Set-up: scale not given: the % may be the effect or the level left. In kind it is functional.
The target in data set [17] is T1, DNA topoisomerase I (Leishmania donovani (strain BPK282A1)). Description: Binding affinity to Leishmania donovani topoisomerase I assessed as DNA intercalation by measuring dislodging of bound fluorophore at 200 uM by EtBr displacement assay.
Data set [18] deals with Leishmania donovani. Description: Induction of cell cycle arrest in antimony resistant Leishmania donovani BHU575 promastigotes assessed as decrease in accumulation of cells in S phase at 5 uM measured after 12 hrs by PI staining based flow cytometry (reference value: 9.8%). Set-up: scale not given: the % may be the effect or the level left. The format is functional.

Activity calls are given as the source filed them. The calls are words filed in the database; no cut-off is given here.

Turning to `COc1cc(-c2nc3ccccc3c3nc4ccccn4c23)cc(OC)c1OC`, the “fold change (FC)” value in the data set on Leishmania donovani [1] came to 10; in [15] it was 5. In addition, the outcome in the data set on Leishmania donovani [2], in the data set on Leishmania donovani [4], in the data set with Leishmania donovani [11] and with Leishmania donovani [14] was Active. Further, the Activity turned out to be 27.7% with Leishmania donovani [3]; 90% in the data set on Leishmania donovani [6]; 34.2% in the data set on Leishmania donovani [9]; 60% with Leishmania donovani [12]; 70.8% with Leishmania donovani [16]; 23.7% in the data set on Leishmania donovani [18]. Besides, the outcome (in the data set on MCF7 [5]; in the data set with MCF7 [10]; in data set [17]) was inactive. Moreover, the selectivity ratio in data set [7] came to 9.25. Further, the inhibition result in data set [8] and in [13] was “inactive” throughout.
